According to US5800838A, “Composition that inhibits or destroys at least one unicellular living organism containing fluorine F- and Lithium li+” (priority 1987, dated 1998):
Values after ≈ are worked out from the molar mass of the structure shown. Each block holds one compound with its values, some of them ahead of it.

How the values were obtained:
Assay type in all cases: cell-based
spermatozoa = test: SANDERS-CRAMER total spermicidal test according to IPPF standards
Pseudomonas aeruginosa [1] = test: MIC on 200 wild-type strains of Pseudomonas aeruginosa (Examples 19 and 20)
Description: With the same methodology as above, the MIC values of benzalkonium chloride alone, in the presence of the KATHON CG (registered trademark) preservative (1 mg/l), and then in the presence of KATHON CG (registered trademark) (1 mg/l) and lithium fluoride (1 mg/l), were determined. 200 wild-type strains of Pseudomonas aeruginosa were tested.
The same trial as in Example 19 was performed, but with nonoxinol 9 as the primary active principle: 200 wild-type strains of Pseudomonas aeruginosa were also tested.

Gardnerella vaginalis = test: Number of strains inhibited, bactericidal substance incorporated in culture medium (first trial); conditions: NaF or LiF 1 mg/l where added
Description: In the first trial, the sample of bactericidal substance was incorporated directly in the specific culture edium of the microorganism. A concentration series of the bactericidal substance was prepared in the geometric ratio of 2, from 400 μg/ml to 1.56 μg/ml. The cell concentration used in the seeding of the Petri dishes was […]. A 24-hour incubation was performed at 37° C. and then, for each wild-type strain tested, the concentration of primary principle destroying all the microorganisms (see method of Professor F. CATALAN et al., Institut A. FOURNIER, PARIS) was determined. The trail was performed on 32 wild-type strains of Gardnerella vaginalis originating from hospital sources and with benzalkonium chloride and then nonoxinol 9 as active principles, and with sodium fluoride NaF at a concentration of 1 mg/l and then lithium fluoride LiF at a concentration of 1 mg/l as activating principles.

Pseudomonas aeruginosa [2] = test: MIC of antibiotics by microdilution in liquid medium on plates (Example 18); conditions: for MIC: Pseudomonas aeruginosa, read-out: MIC (average MIC value)
Description: The unicellular living organism chosen for the trials is Pseudomonas aeruginosa (wild-type strain originating from hospital sources).
The same methodology as for Examples 11 and 12 was follows. Bacteriostatic analyses were performed with a number of antibiotics belonging to benzylpenicillins, and aminopenicillins, and first and second generation cephalosporins, namely:
The determination of the MIC was carried out by the microdilution method in liquid medium on plates. Aqueous solutions of each antibiotic are prepared in MUELLER HINION broth, to obtain dilutions in a geometric ratio of 2. The solvent is sterile double-distilled water.
The preparation of the bacterial inoculum is made with a culture of Pseudomonas aeruginosa, with agitation on a water bath at 37° C. for 4 to 6 hours, giving 10^6 bacteria/ml.
Three trials were performed per antibiotic and per bacterial inoculum. The trials were performed first with the antibiotics alone (trials a).sctn., and then with the addition of a dose of 1 mg/l of an aqueous solution of lithium fluoride (trials b).sctn. to the dilution of each one in every cup of every plate.

Pseudomonas aeruginosa [3] = test: Resistance of Pseudomonas aeruginosa to antiseptics in terms of water hardness and proteins;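 further: R means colony growth observed and S means no significant growth; key: R: resistant (a growth of colonies was observed); S: sensitive (no significant growth was observed)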
Description: The resistance of Pseudomonas aeruginosa to various reputedly bactericidal active principles or commercial antiseptics was studied in terms of the hardness of the water and the presence or absence of proteins. The same trial was carried out on the foaming paste according to the invention (see Example 15).

[4] = alone, strain lic R βLac^+ cephalosporinase
[5] = alone, strain lic S βLac^- (first column)
[6] = alone, strain lic S βLac^- (second column)

SMILES: [Li+] [Li^+ ions]
- spermicidal effect (spermatozoa; in words): A spermicidal effect

SMILES: CCCCCCCCCc1ccc(OCCOCCOCCOCCOCCOCCOCCOCCOCCO)cc1 [Nonoxinol 9]
- MIC (Pseudomonas aeruginosa [1]; + KATHON CG (1 mg/l) + LiF (1 mg/l), strain Tic R βLac^+): 64 µg/mL
- MIC (Pseudomonas aeruginosa [1]; + KATHON CG (1 mg/l) + LiF (1 mg/l), strain Tic R βLac^+ OXA): 64 µg/mL
- MIC (Pseudomonas aeruginosa [1]; + KATHON CG (1 mg/l) + LiF (1 mg/l), strain Tic R βLac^+ PSE): 64 µg/mL
- MIC (Pseudomonas aeruginosa [1]; + KATHON CG (1 mg/l) + LiF (1 mg/l), strain Tic R βLac^+ TEM): 64 µg/mL
- MIC (Pseudomonas aeruginosa [1]; + KATHON CG (1 mg/l) + LiF (1 mg/l), strain Tic R βLac^+ cephalosporinase): 128 µg/mL
- MIC (Pseudomonas aeruginosa [1]; + KATHON CG (1 mg/l) + LiF (1 mg/l), strain Tic S βLac^-): 32 µg/mL
- MIC (Pseudomonas aeruginosa [1]; alone, strain Tic R βLac^+): 128 µg/mL (≈ 208 µM)
- MIC (Pseudomonas aeruginosa [1]; alone, strain Tic R βLac^+ OXA): 128 µg/mL (≈ 208 µM)
- MIC (Pseudomonas aeruginosa [1]; alone, strain Tic R βLac^+ PSE): 64 µg/mL (≈ 104 µM)
- MIC (Pseudomonas aeruginosa [1]; alone, strain Tic R βLac^+ TEM): 128 µg/mL (≈ 208 µM)
- MIC (Pseudomonas aeruginosa [1]; alone, strain Tic R βLac^+ cephalosporinase): 256 µg/mL (≈ 415 µM)
- MIC (Pseudomonas aeruginosa [1]; alone, strain Tic S βLac^-): 64 µg/mL (≈ 104 µM)
- number of strains inhibited out of the 32 tested (Gardnerella vaginalis; primary active principle 1.56 mg/l): 0
- number of strains inhibited out of the 32 tested (Gardnerella vaginalis; primary active principle 3.125 mg/l): 0
- number of strains inhibited out of the 32 tested (Gardnerella vaginalis; primary active principle 6.25 mg/l): 0
- number of strains inhibited out of the 32 tested (Gardnerella vaginalis; primary active principle 12.5 mg/l): 0
- number of strains inhibited out of the 32 tested (Gardnerella vaginalis; primary active principle 25 mg/l): 4
- number of strains inhibited out of the 32 tested (Gardnerella vaginalis; primary active principle 50 mg/l): 6
- number of strains inhibited out of the 32 tested (Gardnerella vaginalis; primary active principle 100 mg/l): 10
- number of strains inhibited out of the 32 tested (Gardnerella vaginalis; primary active principle 200 mg/l): 25
- number of strains inhibited out of the 32 tested (Gardnerella vaginalis; primary active principle 400 mg/l): 32

- MIC (Pseudomonas aeruginosa [2]; + LiF 1 mg/l, strain lic R βLac^+ OXA): 64 µg/mL
- MIC (Pseudomonas aeruginosa [2]; + LiF 1 mg/l, strain lic R βLac^+ PSE): 64 µg/mL
- MIC (Pseudomonas aeruginosa [2]; + LiF 1 mg/l, strain lic R βLac^+ TEM): 64 µg/mL
- MIC (Pseudomonas aeruginosa [2]; + LiF 1 mg/l, strain lic R βLac^+ cephalosporinase): 128 µg/mL
- MIC (Pseudomonas aeruginosa [2]; + LiF 1 mg/l, strain lic S βLac^- (first column)): 8 µg/mL
- MIC (Pseudomonas aeruginosa [2]; + LiF 1 mg/l, strain lic S βLac^- (second column)): 8 µg/mL
- MIC (Pseudomonas aeruginosa [2]; alone, strain lic R βLac^+ OXA): 64 µg/mL
- MIC (Pseudomonas aeruginosa [2]; alone, strain lic R βLac^+ PSE): 128 µg/mL
- MIC (Pseudomonas aeruginosa [2]; alone, strain lic R βLac^+ TEM): 64 µg/mL
- MIC (Pseudomonas aeruginosa [2]; [4]): 128 µg/mL
- MIC (Pseudomonas aeruginosa [2]; [5]): 8 µg/mL
- MIC (Pseudomonas aeruginosa [2]; [6]): 16 µg/mL
SMILES: CCN1CCN(C(=O)N[C@@H](C(=O)N[C@@H]2C(=O)N3[C@@H]2SC(C)(C)[C@@H]3C(=O)O)c2ccccc2)C(=O)C1=O [PIPERACILLIN, piperacillin]

SMILES: O=S(=O)([O-])[O-].[Zn+2] [Zinc sulphate]
- resistance (Pseudomonas aeruginosa [3]; 0.2 ml inoculum, contact time 10 mn, distilled water, P+): R
- resistance (Pseudomonas aeruginosa [3]; 0.2 ml inoculum, contact time 10 mn, distilled water, P-): R
- resistance (Pseudomonas aeruginosa [3]; 0.2 ml inoculum, contact time 10 mn, hard water, P+): R
- resistance (Pseudomonas aeruginosa [3]; 0.2 ml inoculum, contact time 10 mn, hard water, P-): R
- resistance (Pseudomonas aeruginosa [3]; 0.4 ml inoculum, contact time 20 mn, distilled water, P+): R
- resistance (Pseudomonas aeruginosa [3]; 0.4 ml inoculum, contact time 20 mn, distilled water, P-): R
- resistance (Pseudomonas aeruginosa [3]; 0.4 ml inoculum, contact time 20 mn, hard water, P+): R
- resistance (Pseudomonas aeruginosa [3]; 0.4 ml inoculum, contact time 20 mn, hard water, P-): R
- resistance (Pseudomonas aeruginosa [3]; 0.6 ml inoculum, contact time 30 mn, distilled water, P+): R
- resistance (Pseudomonas aeruginosa [3]; 0.6 ml inoculum, contact time 30 mn, distilled water, P-): R
- resistance (Pseudomonas aeruginosa [3]; 0.6 ml inoculum, contact time 30 mn, hard water, P+): R
- resistance (Pseudomonas aeruginosa [3]; 0.6 ml inoculum, contact time 30 mn, hard water, P-): R

SMILES: [Cl-].[Li+] [lithium chloride]
- MIC (spermatozoa; alone): 20 ppm
- MIC, equivalent in % (spermatozoa; alone): 0.002%

SMILES: CC1(C)S[C@@H]2[C@H](NC(=O)[C@H](C(=O)O)c3ccsc3)C(=O)N2[C@H]1C(=O)O [ticarcillin]
- number of strains resistant, of 958 strains tested (Pseudomonas aeruginosa [2]): 235
- MIC (Pseudomonas aeruginosa [2]; alone, strain lic R βLac^+ OXA): 512 µg/mL
- MIC (Pseudomonas aeruginosa [2]; alone, strain lic R βLac^+ PSE): 4100 µg/mL
- MIC (Pseudomonas aeruginosa [2]; alone, strain lic R βLac^+ TEM): 1020 µg/mL
- MIC (Pseudomonas aeruginosa [2]; [4]): 256 µg/mL
- MIC (Pseudomonas aeruginosa [2]; [5]): 32 µg/mL
- MIC (Pseudomonas aeruginosa [2]; [6]): 512 µg/mL
